Assay results as given in patent US4734418A, “Quinazoline compounds and antihypertensives” (priority 1984, dated 1988).
Where two headings read alike, the source gives them in different places.

System: Spontaneously Hypertensive Rats
Test: Test 1: antihypertensive effects (systolic tail artery blood pressure) and heart rate in spontaneously hypertensive rats, oral
Type: in vivo, rat (male, SHR)
Conditions: SHR, oral 1 mg/Kg; for change in vivo at 1 mg/kg: Rattus norvegicus; for Change (%) in heart rate: maximum value
Description: The antihypertensive effects of the certain compounds of this invention were studied in the following manner.
Among male, spontaneously hypertensive rats (SHRs) of 20 weeks of age or older and 350-430 g heavy all of which had developed hypertension, those having systolic blood pressures of 180 mmHg or higher were used in groups, each of which was constituted of 3-4 of the rats. […] Besides, heart rates were also measured simultaneously. The compounds were each dissolved or suspended in a 0.5% methylcellulose solution and then administered orally.
*All administered orally at a dosage of 1 mg/Kg except for the compounds
**Each percent change in heart rate is indicated by the corresponding

[1] = 1 hour, read-out: Antihypertensive effects, change (%) in blood pressure, 1 hour later
[2] = 3 hours, read-out: Antihypertensive effects, change (%) in blood pressure, 3 hours later
[3] = 6 hours, read-out: Antihypertensive effects, change (%) in blood pressure, 6 hours later
[4] = 24 hours, read-out: Antihypertensive effects, change (%) in blood pressure, 24 hours later

**Q.** What does the source list for CCn1ccc2c(c1=O)CN=C(N1CCN(c3nc(N)c4cc(OC)c(OC)cc4n3)CC1)N2 [Example 35]?
**A.** change in vivo at 1 mg/kg [1]: -0.5%; change in vivo at 1 mg/kg [2]: -8.7%; change in vivo at 1 mg/kg [3]: -16.3%; change in vivo at 1 mg/kg [4]: -15.9%; Change (%) in heart rate: +9.1%

**Q.** CCNC(=O)c1cnc(N2CCN(c3nc(N)c4cc(OC)c(OC)cc4n3)CC2)nc1 [Example 37] was tested. Which change in vivo at 1 mg/kg [1] did it give?
**A.** Its change in vivo at 1 mg/kg is -4.7%.

**Q.** And the change in vivo at 1 mg/kg [2]?
**A.** Its change in vivo at 1 mg/kg is -16.4%.

**Q.** And the change in vivo at 1 mg/kg [3]?
**A.** Its change in vivo at 1 mg/kg is -21.1%.

**Q.** What about the change in vivo at 1 mg/kg [4] of the same molecule?
**A.** Its change in vivo at 1 mg/kg is -8.5%.

**Q.** What about the “Change (%) in heart rate” value of the same molecule?
**A.** The value was “+5.8%”.

**Q.** CCOC(=O)c1cnc(N2CCN(c3nc(N)c4cc(OC)c(OC)cc4n3)CC2)nc1NC(C)=O [Example 60] was tested. Which change in vivo at 1 mg/kg [1] did it give?
**A.** Its change in vivo at 1 mg/kg is -1.6%.

**Q.** And the change in vivo at 1 mg/kg [2]?
**A.** The change in vivo at 1 mg/kg was -5.2%.

**Q.** And the change in vivo at 1 mg/kg [3]?
**A.** Its change in vivo at 1 mg/kg is -8.8%.

**Q.** And the change in vivo at 1 mg/kg [4]?
**A.** Its change in vivo at 1 mg/kg is -1%.

**Q.** What about the “Change (%) in heart rate” value of the same molecule?
**A.** Its value is “+6.0%”.

**Q.** How did the change in vivo at 1 mg/kg [1] turn out when CCn1ccc2nc(N3CCN(c4nc(N)c5cc(OC)c(OC)cc5n4)CC3)ncc2c1=S [Example 16] was run?
**A.** Its change in vivo at 1 mg/kg is -2%.

**Q.** What about the change in vivo at 1 mg/kg [2] of the same molecule?
**A.** Its change in vivo at 1 mg/kg is -8.9%.

**Q.** And the change in vivo at 1 mg/kg [3]?
**A.** The change in vivo at 1 mg/kg was -15.3%.

**Q.** What about the change in vivo at 1 mg/kg [4] of the same molecule?
**A.** Its change in vivo at 1 mg/kg is -8.9%.

**Q.** What about the “Change (%) in heart rate” value of the same molecule?
**A.** The value was “+7.5%”.

**Q.** Which change in vivo at 1 mg/kg [1] does the source give for COc1cc2nc(N3CCN(c4ncc(C(=O)NN(C)C)c(C)n4)CC3)nc(N)c2cc1OC [Example 47] here?
**A.** The change in vivo at 1 mg/kg was -3.5%.

**Q.** What about the change in vivo at 1 mg/kg [2] of the same molecule?
**A.** Its change in vivo at 1 mg/kg is -9%.

**Q.** What about the change in vivo at 1 mg/kg [3] of the same molecule?
**A.** Its change in vivo at 1 mg/kg is -12.5%.

**Q.** What about the change in vivo at 1 mg/kg [4] of the same molecule?
**A.** Its change in vivo at 1 mg/kg is -2.5%.

**Q.** What about the “Change (%) in heart rate” value of the same molecule?
**A.** Its value is “+6.3%”.

**Q.** Which change in vivo at 1 mg/kg [1] does the source give for CCCN(CCC)C(=O)c1cnc(N2CCN(c3nc(N)c4cc(OC)c(OC)cc4n3)CC2)nc1NCC [Example 80] here?
**A.** The change in vivo at 1 mg/kg was -13.9%.

**Q.** What about the change in vivo at 1 mg/kg [2] of the same molecule?
**A.** Its change in vivo at 1 mg/kg is -26%.

**Q.** And the change in vivo at 1 mg/kg [3]?
**A.** The change in vivo at 1 mg/kg was -33.2%.

**Q.** What about the change in vivo at 1 mg/kg [4] of the same molecule?
**A.** Its change in vivo at 1 mg/kg is -10.1%.

**Q.** What about the “Change (%) in heart rate” value of the same molecule?
**A.** The value was “+12.3%”.

**Q.** Which results are given for CCn1ccc2nc(N3CCN(c4ncc5cc(OC)c(OC)cc5n4)CC3)ncc2c1=O [Example 95, 6,7-Dimethoxy-2-(4-(5,6-dihydro-6-ethyl-5-oxopyrido[4,3-d]pyrimidine-2-yl)piperazino)quinazoline]?
**A.** change in vivo at 1 mg/kg [1]: 2.5%; change in vivo at 1 mg/kg [2]: -2.9%; change in vivo at 1 mg/kg [3]: -6.4%; change in vivo at 1 mg/kg [4]: -3.9%; Change (%) in heart rate: +5.8%

**Q.** Which results are given for CCn1ccc2nc(N3CCCN(c4nc(N)c5cc(OC)c(OC)cc5n4)CC3)ncc2c1=O [Example 82, 4-Amino-6,7-dimethoxy-2-(4-(5,6-dihydro-6-ethyl-5-oxopyrido[4,3-d]pyrimidin-2-yl)homopiperazino)quinazoline]?
**A.** change in vivo at 1 mg/kg [1]: 0.5%; change in vivo at 1 mg/kg [2]: -6.9%; change in vivo at 1 mg/kg [3]: -8.8%; change in vivo at 1 mg/kg [4]: -6.4%; Change (%) in heart rate: +5.8%

**Q.** With CCN(CC)C(=O)c1cnc(N2CCN(c3nc(N)c4cc(OC)c(OC)cc4n3)CC2)nc1NC(C)C [Example 78] as the molecule, how does the change in vivo at 1 mg/kg [1] read?
**A.** Its change in vivo at 1 mg/kg is -23.4%.

**Q.** What about the change in vivo at 1 mg/kg [2] of the same molecule?
**A.** Its change in vivo at 1 mg/kg is -33.7%.

**Q.** What about the change in vivo at 1 mg/kg [3] of the same molecule?
**A.** The change in vivo at 1 mg/kg was -50.2%.

**Q.** What about the change in vivo at 1 mg/kg [4] of the same molecule?
**A.** The change in vivo at 1 mg/kg was -18.5%.

**Q.** What about the “Change (%) in heart rate” value of the same molecule?
**A.** Its value is “+23.7%”.

**Q.** CCCCCCCN1Cc2nc(N3CCN(c4nc(N)c5cc(OC)c(OC)cc5n4)CC3)ncc2C1=O [Example 90] was tested. Which change in vivo at 1 mg/kg [1] did it give?
**A.** The change in vivo at 1 mg/kg was 2.3%.

**Q.** And the change in vivo at 1 mg/kg [2]?
**A.** Its change in vivo at 1 mg/kg is -6.8%.

**Q.** What about the change in vivo at 1 mg/kg [3] of the same molecule?
**A.** Its change in vivo at 1 mg/kg is -15.5%.

**Q.** And the change in vivo at 1 mg/kg [4]?
**A.** The change in vivo at 1 mg/kg was -2.7%.

**Q.** What about the “Change (%) in heart rate” value of the same molecule?
**A.** Its value is “+8.7%”.

**Q.** Which results are given for CCn1ccc(=O)c2cnc(N3CCN(c4nc(N)c5cc(OC)c(OC)cc5n4)CC3)nc21 [Example 20]?
**A.** change in vivo at 1 mg/kg [1]: 1.5%; change in vivo at 1 mg/kg [2]: -12.5%; change in vivo at 1 mg/kg [3]: -12%; change in vivo at 1 mg/kg [4]: -2%; Change (%) in heart rate: +5.7%

**Q.** What does the source list for CCOC(=O)c1cnc(N2CCN(c3nc(N)c4cc(OC)c(OC)cc4n3)CC2)nc1C(=O)OCC [Example 84]?
**A.** change in vivo at 1 mg/kg [1]: 0.5%; change in vivo at 1 mg/kg [2]: 0%; change in vivo at 1 mg/kg [3]: -1.5%; change in vivo at 1 mg/kg [4]: -0.5%; Change (%) in heart rate: +2.2%

**Q.** With COc1cc2nc(N3CCN(c4ncc(C(=O)NC5CCCCC5)c(C)n4)CC3)nc(N)c2cc1OC [Example 45] as the molecule, how does the change in vivo at 1 mg/kg [1] read?
**A.** Its change in vivo at 1 mg/kg is -1.5%.

**Q.** What about the change in vivo at 1 mg/kg [2] of the same molecule?
**A.** The change in vivo at 1 mg/kg was -2.5%.

**Q.** What about the change in vivo at 1 mg/kg [3] of the same molecule?
**A.** The change in vivo at 1 mg/kg was -8%.

**Q.** What about the change in vivo at 1 mg/kg [4] of the same molecule?
**A.** The change in vivo at 1 mg/kg was -5.5%.

**Q.** What about the “Change (%) in heart rate” value of the same molecule?
**A.** The value was “+4.2%”.

**Q.** Which change in vivo at 1 mg/kg [1] does the source give for CCN(CC)C(=O)c1cnc(N2CCN(c3nc(N)c4cc(OC)c(OC)cc4n3)CC2)nc1OC [Example 52] here?
**A.** Its change in vivo at 1 mg/kg is -8%.

**Q.** And the change in vivo at 1 mg/kg [2]?
**A.** Its change in vivo at 1 mg/kg is -13%.

**Q.** And the change in vivo at 1 mg/kg [3]?
**A.** Its change in vivo at 1 mg/kg is -19.5%.

**Q.** And the change in vivo at 1 mg/kg [4]?
**A.** The change in vivo at 1 mg/kg was -3%.

**Q.** And the “Change (%) in heart rate” value?
**A.** The value was “+3.6%”.

**Q.** How did the change in vivo at 1 mg/kg [1] turn out when COc1cc2nc(N3CCN(C4=NCc5c(ccn(C)c5=O)N4)CC3)nc(N)c2cc1OC [Example 34] was run?
**A.** Its change in vivo at 1 mg/kg is 0.5%.

**Q.** What about the change in vivo at 1 mg/kg [2] of the same molecule?
**A.** The change in vivo at 1 mg/kg was -9.1%.

**Q.** What about the change in vivo at 1 mg/kg [3] of the same molecule?
**A.** The change in vivo at 1 mg/kg was -13.9%.

**Q.** What about the change in vivo at 1 mg/kg [4] of the same molecule?
**A.** The change in vivo at 1 mg/kg was -7.2%.

**Q.** And the “Change (%) in heart rate” value?
**A.** Its value is “+2.3%”.

**Q.** What does the source list for CCn1cc(Cc2ccccc2)c2nc(N3CCN(c4nc(N)c5cc(OC)c(OC)cc5n4)CC3)ncc2c1=O [Example 15]?
**A.** change in vivo at 1 mg/kg [1]: -2.9%; change in vivo at 1 mg/kg [2]: -7.7%; change in vivo at 1 mg/kg [3]: -12%; change in vivo at 1 mg/kg [4]: -7.7%; Change (%) in heart rate: +3.7%
